Reference: US5216005A, “Immunosuppressive analogues and derivatives of succinylacetone” (priority 1990, dated 1993)

Experiments:
Format in all cases: cell-based
[1] = test system: IL-2 (human lymphoid cells); assay: IL-2 production in primary mixed lymphocyte reaction (HT-2 cell assay); parameters: IL-2: unit not given here; conditions: for IL-2: 1° MLR
Method: Derivatives of succinylacetone were tested for immunosuppressive activity in several different types of assay systems. The first consisted of measuring the amounts of interleukin-2 (IL-2), and interferon-γ (IFN-γ) produced by human lymphoid cells in a mixed lymphocyte reaction. Low levels of these molecules in the reaction mixture indicate that the immune system is being suppressed by the subject succinylacetone derivatives. IL-2 was measured by enumerating the number of viable HT-2 cells found after an 18-24 hours period. HT-2 cells are a mouse IL-2 dependent cell line which die in the absence of IL-2. The assay is described by Gillis et al., J. of Immunol. […] The mixed lymphocyte reaction assay can be carried out by techniques well known to those skilled in the art. L. Hudson and F. C. Huy, Practical Immunology, p. […] Briefly this consists of isolating lymphocytes from human peripheral blood by standard density gradient centrifugation techniques from two separate individuals. Approximately 2×10^5 lymphocytes of each individual are combined to yield a total of 4×10^5 lymphocytes per culture. All procedures are carried out under sterile conditions, and the lymphocytes are isolated and kept in physiologically compatible solutions. To the mixture of lymphocytes is added a desired amount of an appropriate succinylacetone derivative, and after different times an aliquot of the mixture is removed and assayed for IL-2 or IFN-γ, or ^[…] is measured.

[2] = test system: IFN-γ (human lymphoid cells); assay: IFN-γ production in primary mixed lymphocyte reaction (WISH cells/EMC virus assay); parameters: IFN-γ: unit not given here; conditions: for IFN-γ: 1° MLR
Method: Derivatives of succinylacetone were tested for immunosuppressive activity in several different types of assay systems. The first consisted of measuring the amounts of interleukin-2 (IL-2), and interferon-γ (IFN-γ) produced by human lymphoid cells in a mixed lymphocyte reaction. Low levels of these molecules in the reaction mixture indicate that the immune system is being suppressed by the subject succinylacetone derivatives.
IFN-γ was determined by measuring the amount of protection conveyed on human WISH cells against the cytopathic effects of encephalomyocarditis virus (EMC). This assay is described by I. A. Braude, J. of Immunol. Methods 63:237 (1983). Both publications are hereby incorporated by reference.
(§1) The mixed lymphocyte reaction assay can be carried out by techniques well known to those skilled in the art. L. Hudson and F. C. Huy, Practical Immunology, p. 260, Blackwell Scientific Publications (1976). Briefly this consists of isolating lymphocytes from human peripheral blood by standard density gradient centrifugation techniques from two separate individuals. Approximately 2×10^5 lymphocytes of each individual are combined to yield a total of 4×10^5 lymphocytes per culture. All procedures are carried out under sterile conditions, and the lymphocytes are isolated and kept in physiologically compatible solutions. To the mixture of lymphocytes is added a desired amount of an appropriate succinylacetone derivative, and after different times an aliquot of the mixture is removed and assayed for IL-2 or IFN-γ, or ^3 H-T is measured.

[3] = test system: human lymphocytes; assay: tritiated thymidine uptake in primary mixed lymphocyte reaction; conditions: for incorporation of tritiated thymidine: Table IV
Excerpt: The in vitro mixed lymphocyte assay described below is presently employed in the clinical setting as an indicator of histocompatibility, and is premised on the transformation of resting genetically dissimilar lymphocytes into cells which synthesize DNA and undergo proliferation.
as §1
As mentioned above, one measure of an immune response as reflected in a mixed lymphocyte assay is the stimulation of DNA synthesis, and a concomitant increase in cell number. Thus, to further ascertain the immunosuppressive activity of succinylacetonyl-proline-NH-PEG, its effect on inhibition of thymocyte growth, as detected by uptake of tritiated thymidine, was assayed.

[4] = test system: human lymphocytes; assay: phytohemagglutinin (PHA) stimulation assay, tritiated thymidine uptake
Method: A second assay widely used to study immune responsiveness is mitogenic stimulation of thymocytes with antigenic substances of plant origin. The most widely used plant molecule is phytohemagglutinin (PHA).
The procedure for carrying out the phytohaemagglutinin assay is also well known to those skilled in the art. Briefly, it consists of isolating human lymphocytes as described above, and incubating about 1.0×10^6 cells per ml in a suitable physiological solution with phytohaemagglutinin, and the appropriate concentration of succinylacetone-proline-NH-PEG. Tritiated thymidine is added 48 hours later and allowed to incubate for twenty-four hours before the cells are counted.

## COC(=O)CCC(C(C)=O)C(C)=O [Methyl 4-Acetyl-5-Oxohexanoate, methyl 4-acetyl-5-oxohexanoate]
[1]; Exp I, 3 μM
  IL-2: 29
[1]; Exp I, 9 μM
  IL-2: 46
[1]; Exp I, 27 μM
  IL-2: 30
[1]; Exp I, 81 μM
  IL-2: 42
[1]; Exp I, 244 μM
  IL-2: 17
[1]; Exp I, 733 μM
  IL-2: 17
[1]; Exp I, 2.2 mM
  IL-2: 9
[1]; Exp I, 6.7 mM
  IL-2: < 6
[1]; Exp I, 20 mM
  IL-2: < 6
[1]; Exp II, 3 μM
  IL-2: 70
[1]; Exp II, 9 μM
  IL-2: 85
[1]; Exp II, 27 μM
  IL-2: 52
[1]; Exp II, 81 μM
  IL-2: 70
[1]; Exp II, 244 μM
  IL-2: 52
[1]; Exp II, 733 μM
  IL-2: 70
[1]; Exp II, 2.2 mM
  IL-2: 35
[1]; Exp II, 6.7 mM
  IL-2: < 12
[1]; Exp II, 20 mM
  IL-2: < 12
[1]; Homo sapiens, HT2, primary MLR, read-out: concentration causing 50% reduction in IL-2 production
  IC50: ~2200 µM
[2]; Exp I, 3 μM
  IFN-γ: 1260
[2]; Exp I, 9 μM
  IFN-γ: 1260
[2]; Exp I, 27 μM
  IFN-γ: 1260
[2]; Exp I, 81 μM
  IFN-γ: 1313
[2]; Exp I, 244 μM
  IFN-γ: 998
[2]; Exp I, 733 μM
  IFN-γ: 570
[2]; Exp I, 2.2 mM
  IFN-γ: 285
[2]; Exp I, 6.7 mM
  IFN-γ: < 285
[2]; Exp I, 20 mM
  IFN-γ: < 285
[2]; Exp II, 3 μM
  IFN-γ: 1144
[2]; Exp II, 9 μM
  IFN-γ: 1248
[2]; Exp II, 27 μM
  IFN-γ: 1248
[2]; Exp II, 81 μM
  IFN-γ: 1560
[2]; Exp II, 244 μM
  IFN-γ: 1953
[2]; Exp II, 733 μM
  IFN-γ: 1172
[2]; Exp II, 2.2 mM
  IFN-γ: 703
[2]; Exp II, 6.7 mM
  IFN-γ: < 469
[2]; Exp II, 20 mM
  IFN-γ: < 469
[2]; Homo sapiens, Lymphocyte, primary MLR, read-out: concentration causing 50% reduction in IFN-γ production
  IC50: ~2200 µM
[3]; Homo sapiens, Lymphocyte, primary MLR, read-out: concentration causing 50% inhibition in thymidine uptake
  IC50: ~2200 µM
[3]; Exp I, 3 μM
  incorporation of tritiated thymidine: 74259
[3]; Exp I, 9 μM
  incorporation of tritiated thymidine: 77627
[3]; Exp I, 27 μM
  incorporation of tritiated thymidine: 77634
[3]; Exp I, 81 μM
  incorporation of tritiated thymidine: 81881
[3]; Exp I, 244 μM
  incorporation of tritiated thymidine: 48284
[3]; Exp I, 733 μM
  incorporation of tritiated thymidine: 67787
[3]; Exp I, 2.2 mM
  incorporation of tritiated thymidine: 29389
[3]; Exp I, 6.7 mM
  incorporation of tritiated thymidine: 135
[3]; Exp I, 20 mM
  incorporation of tritiated thymidine: 163
[3]; Exp II, 3 μM
  incorporation of tritiated thymidine: 114713
[3]; Exp II, 9 μM
  incorporation of tritiated thymidine: 117109
[3]; Exp II, 27 μM
  incorporation of tritiated thymidine: 112463
[3]; Exp II, 81 μM
  incorporation of tritiated thymidine: 113054
[3]; Exp II, 244 μM
  incorporation of tritiated thymidine: 122672
[3]; Exp II, 733 μM
  incorporation of tritiated thymidine: 113732
[3]; Exp II, 2.2 mM
  incorporation of tritiated thymidine: 84363
[3]; Exp II, 6.7 mM
  incorporation of tritiated thymidine: 21280
[3]; Exp II, 20 mM
  incorporation of tritiated thymidine: 109
[4]; Homo sapiens, Lymphocyte, both assays (two individuals), read-out: concentration causing about 50% inhibition in PHA stimulation
  IC50: ~309 µM
[4]; first experiment, 3.8 μM
  PHA stimulation, cpm ± SD: 19888 cpm
[4]; first experiment, 11 μM
  PHA stimulation, cpm ± SD: 19401 cpm
[4]; first experiment, 34 μM
  PHA stimulation, cpm ± SD: 19399 cpm
[4]; first experiment, 103 μM
  PHA stimulation, cpm ± SD: 18677 cpm
[4]; first experiment, 309 μM
  PHA stimulation, cpm ± SD: 14098 cpm
[4]; first experiment, 926 μM
  PHA stimulation, cpm ± SD: 2776 cpm
[4]; first experiment, 2.8 mM
  PHA stimulation, cpm ± SD: 116 cpm
[4]; first experiment, 25 mM
  PHA stimulation, cpm ± SD: 200 cpm
[4]; first experiment, 83 mM
  PHA stimulation, cpm ± SD: 192 cpm
[4]; second experiment, 3.8 μM
  PHA stimulation, cpm ± SD: 33799 cpm
[4]; second experiment, 11 μM
  PHA stimulation, cpm ± SD: 33417 cpm
[4]; second experiment, 34 μM
  PHA stimulation, cpm ± SD: 34006 cpm
[4]; second experiment, 103 μM
  PHA stimulation, cpm ± SD: 30569 cpm
[4]; second experiment, 309 μM
  PHA stimulation, cpm ± SD: 19713 cpm
[4]; second experiment, 926 μM
  PHA stimulation, cpm ± SD: 5600 cpm
[4]; second experiment, 2.8 mM
  PHA stimulation, cpm ± SD: 717 cpm
[4]; second experiment, 25 mM
  PHA stimulation, cpm ± SD: 200 cpm
[4]; second experiment, 83 mM
  PHA stimulation, cpm ± SD: 156 cpm
